Assay results from patent publication US20190106460A1, “BINDING INHIBITORS OF THE BETA. TRANSDUCIN REPEAT-CONTAINING PROTEIN” (priority 2011, published 2019).
Non-standard residues stand in square brackets, D forms with d. Residues, ends and D or L forms follow the SMILES beside them. Groups on a side chain read outwards from the residue. *: point of attachment. X3 = CC(C)CCC[C@@H](C)[C@H]1CCC2C3CC=C4C[C@@H](OC(=O)*)CC[C@]4(C)C3CC[C@@]21C; Benzenesulfonyl(4-OMe) = COc1ccc(S(=O)(=O)*)cc1; Phe(3-F) = N[C@@H](Cc1cccc(F)c1)C(=O)O; Ahx = NCCCCCC(=O)O

Key:
[1] = tested on: β-catenin in MCF7 cells; test: β-Catenin in cell western; type: cell-based
Experimental: β-Catenin in Cell Western
Plating of the MCF7 cells onto 96 well plates—this step is carried out 1 day before the treatment of the cells to allow the cells to adhere well to the tissue culture plastic. MCF7 cells to be used for seeding should be less than 100% confluent in a 10 cm dish. Add 3 ml of RT trypsin/EDTA to the cells. Incubate at 37° C./5% CO2 for a few minutes until the cells easily come away from the plastic by gentle swirling. Add 7 ml of media to the cells. Wash the bottom of the plate gently with the 10 ml to ensure all cells are captured and dispense into a 15 ml falcon. Add 1001l of the cells to 1001l of Trypan blue and add to haemocytometer to count the number of cells present. Make up approx 10 ml of cells in media at 2×10^4 cells/1001l (well) with fresh media. Add this correct seeding density to a 10 cm dish. Dispense 1001l of cells/well into a 96 well plate without using the outside wells. Incubate at 37° C./5% CO2 overnight
Treatment of MCF7 cells with compound of interest (COI) and controls—Put OptiMEM into 37° C. water bath to warm. Add 4 ul of 50 mM compound X for testing to eppendorf—this is tube 1. Add 2 al DMSO to 6 tubes marked tube 2-7. Take 21 al of 50 mM (COI) and add to 2 al of DMSO in tube 2 and pipette up and down to mix. Take 21 al from tube 2 and add to 2 μl DMSO in next tube and mix. […]

[2] = tested on: MCF7:GFP-PDCD4^S71A/S76A; test: Fluorescence reporter assay for PDCD4 accumulation, mutant; type: cell-based; conditions: PDCD4 mutated to eliminate PDCD4-βTrCP interaction
Experimental: Fluorescence Reporter Assay for PDCD4 Accumulation
This assay uses two stable cell lines expressing PDCD4 fused to a GFP tag.
The two stable cell lines MCF7:GFP-PDCD4^WT and MCF7:GFP-PDCD4^S71A/S76Awere grown in 10 ml DMEM+10% FBS and 1% Pen/Strep supplemented with 2 mg/ml Geneticin at 37° C./5% CO2. These cell lines were nucleofected as described above except for the additional supplementation of all media with 2 mg/ml Geneticin.
Fluorescent Reporter Assay
The cells were fixed by removing the growth media and adding 3.7% Formaldehyde in PBS to the cells. The cells were then incubated at RT for 20 mins and the plates washed 3× in PBS.
DRAQ5 DNA stain was added to the cells in PBS at a concentration of 1:10000 and incubated at RT for 1 hour protecting from light. The plate was washed 3× in PBS and read on the Perkin Elmer OPERA platform using the nuclei counting algorithm F in both the 488 nm channel (GFP) and 640 nm channel (DRAQ5). DMSO was used as a negative control and 10 μM MG132 was used as a positive control. Error bars represent standard deviation from 6 replicates. The data are expressed as percentage activity with DMSO (WT)=0% and 10 μM MG132 (WT)=100% activity.
This confirms that the stabilisation resulting from the compounds is dependent on the βTrCP/PDCD4 interaction and is not due to another mechanism such as a global increase in protein production.

COc1ccc(S(=O)(=O)N[C@H](CC(=O)O)C(=O)N[C@@H](CCC(=O)O)C(=O)NCC(=O)N[C@@H](Cc2cccc(F)c2)C(=O)N[C@@H](Cc2c[nH]c3ccccc23)C(=O)N[C@@H](CCC(=O)O)C(=O)NCCCCCC(=O)N[C@@H](CCCCNC(=O)CCCCCNC(=O)O[C@H]2CC[C@@]3(C)C(=CCC4C3CC[C@@]3(C)C4CC[C@@H]3[C@H](C)CCCC(C)C)C2)C(N)=O)cc1 (some centres unmarked) [UBP036, 4-(MeO)PhSO2-dEGF(3F)WE-Ahx-K(Ahx-Chol)-NH2] ({Benzenesulfonyl(4-OMe)}-[dD]EG[Phe(3-F)]WE[Ahx]K([Ahx-X3])-NH2)
accumulation of β-catenin, in cell western [1]: accumulation of β-catenin
accumulation of GFP-PDCD4 Mut, fluorescent reporter assay [2]: no accumulation of PDCD4
